Measured values: US7517517B2 (Janssen Pharmaceutica N.V., priority 2002, dated 2009)

target: T1, cloned rat mGlu1 receptor (Rattus norvegicus, UniProt P23385); test: Signal transduction at the cloned rat mGlu1 receptor in CHO cells (glutamate-induced Ca2+ rise, FLIPR); format: cell-based; settings: 50% inhibition of the glutamate-induced intracellular Ca2+ rise; CHO cells, FLIPR
T1 construct: expressed in transfected cells; host or cells: CHO cells
T1 sequence (P23385 19-1199): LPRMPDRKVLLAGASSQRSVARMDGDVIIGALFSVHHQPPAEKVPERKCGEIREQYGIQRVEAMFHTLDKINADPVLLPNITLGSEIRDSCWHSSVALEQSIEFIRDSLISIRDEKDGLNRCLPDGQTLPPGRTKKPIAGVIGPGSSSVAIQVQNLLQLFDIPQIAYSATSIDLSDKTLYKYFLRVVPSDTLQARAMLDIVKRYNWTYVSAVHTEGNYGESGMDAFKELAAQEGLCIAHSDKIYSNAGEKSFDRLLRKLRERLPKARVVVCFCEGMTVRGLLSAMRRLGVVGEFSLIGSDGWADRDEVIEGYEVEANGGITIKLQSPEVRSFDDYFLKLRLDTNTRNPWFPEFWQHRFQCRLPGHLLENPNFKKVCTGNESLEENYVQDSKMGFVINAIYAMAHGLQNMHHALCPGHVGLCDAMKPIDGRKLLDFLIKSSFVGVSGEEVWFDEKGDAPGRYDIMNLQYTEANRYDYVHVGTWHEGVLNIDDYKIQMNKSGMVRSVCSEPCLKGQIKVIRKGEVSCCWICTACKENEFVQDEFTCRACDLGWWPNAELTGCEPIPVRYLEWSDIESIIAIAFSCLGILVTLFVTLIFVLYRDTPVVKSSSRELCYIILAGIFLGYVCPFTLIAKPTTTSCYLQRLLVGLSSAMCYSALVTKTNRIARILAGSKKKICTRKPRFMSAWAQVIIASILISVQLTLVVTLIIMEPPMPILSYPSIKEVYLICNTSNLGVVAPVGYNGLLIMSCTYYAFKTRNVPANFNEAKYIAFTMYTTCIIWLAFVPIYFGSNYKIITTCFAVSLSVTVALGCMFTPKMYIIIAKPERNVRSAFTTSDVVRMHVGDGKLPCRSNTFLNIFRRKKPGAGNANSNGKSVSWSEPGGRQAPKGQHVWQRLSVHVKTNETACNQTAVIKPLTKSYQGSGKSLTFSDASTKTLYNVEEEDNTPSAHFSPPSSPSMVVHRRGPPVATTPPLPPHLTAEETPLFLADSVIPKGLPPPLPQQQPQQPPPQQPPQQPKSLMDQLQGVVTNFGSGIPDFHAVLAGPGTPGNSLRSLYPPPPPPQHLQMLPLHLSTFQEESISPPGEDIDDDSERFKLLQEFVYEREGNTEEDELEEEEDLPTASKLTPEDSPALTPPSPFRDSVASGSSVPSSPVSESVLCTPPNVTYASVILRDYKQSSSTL

Row | IC50 [nM] | SMILES
1 | 7.67 | O=C(c1ccc2nc3c(cc2c1)CCS3)C1CCCCC1 [Compound 427]
2 | 4.17 | COC1CCC(C(=O)c2ccc3nc4c(cc3c2)CCO4)CC1 (stereo not drawn) [Compound 429]
3 | 9.48 | O=C(Cc1ccccc1)c1ccc2nc3c(cc2c1)CCCS3 [Compound 439]
4 | 8.81 | CC1Cc2cc3cc(C(=O)Cc4ccccc4)ccc3nc2O1 (stereo not drawn) [Compound 455]
5 | 7.16 | O=C(Cc1ccsc1)c1ccc2nc3c(cc2c1)CCCO3 [Compound 465]
6 | 5.62 | O=C(Cc1ccccc1F)c1ccc2nc3c(cc2c1)CCCO3 [Compound 477]

Row | SMILES | IC50 [nM]
7 | O=C(Cc1ccccc1)c1ccc2nc3c(cc2c1)CCCO3 [Compound 432] | 5.79

same assay, conditions: inhibition of glutamate-induced intracellular Ca2+ rise, CHO cells expressing mGlu1 receptor; compounds with pIC50 between 7 and 8

Row | IC50 [nM] | SMILES
8 | 11.5 | O=C(c1ccc2nc3c(cc2c1)CCS3)[C@H]1CC[C@@H](O)CC1 [Compound 421]
9 | 95.5 | O=C(c1ccc2nc3c(cc2c1)CCS3)[C@H]1CC[C@H](O)CC1 [Compound 422]
10 | 12.9 | COC1CCC(C(=O)c2ccc3nc4c(cc3c2)CCN4C)CC1 (stereo not drawn) [Compound 423]
11 | 43.7 | COC1CCC(C(=O)c2ccc3nc4c(cc3c2)CCO4)CC1 (stereo not drawn) [Compound 429]
12 | 40.7 | CC1CCC(C(=O)c2ccc3nc4c(cc3c2)CCS4)CC1 (stereo not drawn) [Compound 430]
13 | 24.5 | CC1CCC(C(=O)c2ccc3nc4c(cc3c2)CCS4)CC1 (stereo not drawn) [Compound 431]
14 | 16.2 | O=C(c1ccc2nc3c(cc2c1)CCCO3)C12CC3CC(CC(C3)C1)C2 [Compound 433]
15 | 83.2 | O=C(CCc1ccccc1)c1ccc2nc3c(cc2c1)CCCO3 [Compound 434]
16 | 41.7 | O=C(c1ccc2nc3c(cc2c1)CCCO3)C1CC=CCC1 (stereo not drawn) [Compound 435]
17 | 55 | O=C(c1ccc2nc3c(cc2c1)CCCO3)C1CCc2ccccc2C1 (stereo not drawn) [Compound 436]
18 | 16.6 | COC1CCCC(C(=O)c2ccc3nc4c(cc3c2)CCCO4)C1 (stereo not drawn) [Compound 437]
19 | 64.6 | O=C(c1ccc2nc3c(cc2c1)CCCO3)C1COc2ccccc2O1 (stereo not drawn) [Compound 438]
20 | 11.7 | COC1CCCC(C(=O)c2ccc3nc4c(cc3c2)CCCO4)C1 (stereo not drawn) [Compound 440]
21 | 11.2 | O=C(Cc1ccccc1)c1ccc2nc3c(cc2c1)CCS3 [Compound 441]
22 | 93.3 | CN(C)CC(C(=O)c1ccc2nc3c(cc2c1)CCS3)c1ccccc1 (stereo not drawn) [Compound 442]
23 | 23.4 | O=C(c1ccc2nc3c(cc2c1)CCCS3)C1CC2CCC1C2 (stereo not drawn) [Compound 445]

Row | IC50 [nM] | SMILES
24 | 27.5 | O=C(Cc1ccccc1)c1ccc2nc3c(cc2c1)CCC3 [Compound 446]
25 | 19.1 | O=C(c1ccc2nc3c(cc2c1)CCS3)C1CC2CCC1C2 (stereo not drawn) [Compound 447]
26 | 49 | O=C(CCc1ccccc1)c1ccc2nc3c(cc2c1)CCS3 [Compound 448]
27 | 17 | O=C(c1ccc2nc3c(cc2c1)CCS3)C12CC3CC(CC(C3)C1)C2 [Compound 449]
28 | 35.5 | O=C(Cc1ccccc1)c1ccc2nc3c(cc2c1)CCCCC3 [Compound 454]
29 | 35.5 | O=C(c1ccc2nc3c(cc2c1)CCCO3)C1CC2CCC1O2 (stereo not drawn) [Compound 456]
30 | 72.4 | O=C(c1ccc2nc3c(cc2c1)CCCO3)C1CC2CCC1O2 (stereo not drawn) [Compound 457]
31 | 45.7 | COC1CCC(C(=O)c2ccc3nc4c(cc3c2)CCCO4)=CO1 (stereo not drawn) [Compound 460]
32 | 22.4 | O=C(c1ccc2nc3c(cc2c1)CCCO3)C1CC2C=CC1C2 (stereo not drawn) [Compound 461]
33 | 12.6 | O=C(Cc1ccccc1)c1ccc2nc3sccc3cc2c1 [Compound 462]
34 | 10.5 | O=C(Cc1ccccc1)c1ccc2nc3c(cc2c1)CCO3 [Compound 463]
35 | 79.4 | O=C(c1ccc2nc3c(cc2c1)CCS3)C1COc2ccccc2C1 (stereo not drawn) [Compound 466]
36 | 47.9 | O=C(Cc1cccc(F)c1)c1ccc2nc3c(cc2c1)CCCO3 [Compound 473]
37 | 74.1 | O=C(Cc1ccc(F)c(F)c1)c1ccc2nc3c(cc2c1)CCCO3 [Compound 474]
38 | 19.5 | O=C(Cc1ccc(F)cc1)c1ccc2nc3c(cc2c1)CCCO3 [Compound 475]
39 | 45.7 | O=C(CC1(F)CC2CCC1C2)c1ccc2nc3c(cc2c1)CCCO3 (stereo not drawn) [Compound 482]
